# From US20080299108A1, “Peptides for Diagnostic and Therapeutic Methods for Celiac Sprue” (priority 2005, published 2008)
# Experiments:
# [1] = test system: pancreatic proteases (elastase, trypsin, chymotrypsin); type: in vitro ADME
# Text: Because BBM exopeptidases are restricted to N- or C-terminal processing, it was investigated if generation of additional free peptide ends by pancreatic enzymes would accelerate digestion.
# [2] = target: T1, tissue transglutaminase (tTGase) (Homo sapiens, UniProt P21980); settings: cited from earlier work
# T1 sequence (P21980 1-687): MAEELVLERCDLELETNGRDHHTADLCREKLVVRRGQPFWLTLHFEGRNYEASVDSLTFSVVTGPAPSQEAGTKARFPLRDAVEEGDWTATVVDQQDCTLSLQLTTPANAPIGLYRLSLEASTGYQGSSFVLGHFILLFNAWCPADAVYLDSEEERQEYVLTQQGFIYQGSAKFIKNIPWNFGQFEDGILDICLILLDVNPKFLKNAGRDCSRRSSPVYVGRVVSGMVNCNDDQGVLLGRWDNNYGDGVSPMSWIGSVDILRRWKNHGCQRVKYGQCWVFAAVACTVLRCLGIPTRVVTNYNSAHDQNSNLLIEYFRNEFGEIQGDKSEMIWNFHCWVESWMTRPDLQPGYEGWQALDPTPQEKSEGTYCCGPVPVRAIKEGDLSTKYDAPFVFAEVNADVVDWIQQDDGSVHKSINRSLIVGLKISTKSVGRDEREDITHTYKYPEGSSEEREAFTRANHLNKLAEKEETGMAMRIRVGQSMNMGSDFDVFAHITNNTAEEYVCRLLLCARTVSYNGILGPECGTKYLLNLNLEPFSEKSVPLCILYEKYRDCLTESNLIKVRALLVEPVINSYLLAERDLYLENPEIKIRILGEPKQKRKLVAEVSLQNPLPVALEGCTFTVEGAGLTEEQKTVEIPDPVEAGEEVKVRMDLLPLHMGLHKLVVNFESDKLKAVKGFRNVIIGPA
sequence,measurement,setting,value
PQPQLPYPQPQLPY,proteolysis with trypsin or chymotrypsin,[1],No proteolysis was detected
same,hydrolysis by elastase,[1]; elastase at a high (non-physiological) concentration of 100 ng/μl,capable of hydrolyzing
same,specificity of tTGase relative to its target peptide sequence in fibrinogen,[2],5 fold
